Experimental data taken from PubChem BioAssay AID2060502 (Molecular Pharmacology Branch, DTP, NCI, 2025).
Values belong to the molecule of their own block, whether it stands above or below them.

Tested on: 885724-159-R-J1-PDC complex spheroid viability
Experiment: Anticancer human tumor 885724-159-R-J1-PDC patient-derived pancreatic adenocarcinoma cell line growth inhibition [GQUAD]
Conditions: for IC50: curve of first compound; for viability, T/C: stronger effect = lower value
Summary of the method: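 Multi-cell-type spheroids of tumor cells with HUVEC and mesenchymal stem cells, treated with drug combinations. Concentrations descend in half-log steps from near clinical Cmax, or from 10 microM where Cmax is unknown; viability read-out.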

[1] = second compound 0.0316 µM, first compound 0.0316 µM
[2] = second compound 0.0316 µM, first compound 0.1 µM
[3] = second compound 0.0316 µM, first compound 0.316 µM
[4] = second compound 0.0316 µM, first compound 1 µM
[5] = second compound 0.0316 µM, first compound 3.16 µM
[6] = second compound 0.0316 µM, first compound 10 µM
[7] = second compound 0.1 µM, first compound 0.0316 µM
[8] = second compound 0.1 µM, first compound 0.1 µM
[9] = second compound 0.1 µM, first compound 0.316 µM
[10] = second compound 0.1 µM, first compound 1 µM
[11] = second compound 0.1 µM, first compound 3.16 µM
[12] = second compound 0.1 µM, first compound 10 µM
[13] = second compound 0.316 µM, first compound 0.0316 µM
[14] = second compound 0.316 µM, first compound 0.1 µM
[15] = second compound 0.316 µM, first compound 0.316 µM
[16] = second compound 0.316 µM, first compound 1 µM
[17] = second compound 0.316 µM, first compound 3.16 µM
[18] = second compound 0.316 µM, first compound 10 µM
[19] = second compound 1 µM, first compound 0.0316 µM
[20] = second compound 1 µM, first compound 0.1 µM
[21] = second compound 1 µM, first compound 0.316 µM
[22] = second compound 1 µM, first compound 1 µM
[23] = second compound 1 µM, first compound 3.16 µM
[24] = second compound 1 µM, first compound 10 µM
[25] = second compound 3.16 µM, first compound 0.0316 µM
[26] = second compound 3.16 µM, first compound 0.1 µM
[27] = second compound 3.16 µM, first compound 0.316 µM
[28] = second compound 3.16 µM, first compound 1 µM
[29] = second compound 3.16 µM, first compound 3.16 µM
[30] = second compound 3.16 µM, first compound 10 µM
[31] = second compound 10 µM, first compound 0.0316 µM
[32] = second compound 10 µM, first compound 0.1 µM
[33] = second compound 10 µM, first compound 0.316 µM
[34] = second compound 10 µM, first compound 1 µM
[35] = second compound 10 µM, first compound 3.16 µM
[36] = second compound 10 µM, first compound 10 µM
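Note: spheroids exposed to agents for seven days before readout.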
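Throughout, for viability, T/C: percent of vehicle control viability where 100% = DMSO wells.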

Compound: CC(C)n1c(=O)n(C)c2cnc3cc(F)c(-c4ccc(OCCCN5CCCCC5)nc4)cc3c21 + Cc1[nH]c2ccc(F)cc2c1-c1nc2c3cccnc3c3ncccc3c2[nH]1
IC50 (second compound 0.0316 µM): > 10000 nM
IC50 (second compound 0.1 µM): > 10000 nM
IC50 (second compound 0.316 µM): > 10000 nM
IC50 (second compound 1 µM): > 10000 nM
IC50 (second compound 3.16 µM): 133 nM
IC50 (second compound 10 µM): > 10000 nM
viability, T/C [1]: 107%
viability, T/C [2]: 95.2%
viability, T/C [3]: 98.2%
viability, T/C [4]: 92.9%
viability, T/C [5]: 84.6%
viability, T/C [6]: 83.2%
viability, T/C [7]: 100%
viability, T/C [8]: 99.2%
viability, T/C [9]: 100%
viability, T/C [10]: 91.3%
viability, T/C [11]: 94.5%
viability, T/C [12]: 78.9%
viability, T/C [13]: 93.4%
viability, T/C [14]: 102%
viability, T/C [15]: 92.5%
viability, T/C [16]: 79.8%
viability, T/C [17]: 81.6%
viability, T/C [18]: 74.2%
viability, T/C [19]: 74.3%
viability, T/C [20]: 69.2%
viability, T/C [21]: 75%
viability, T/C [22]: 70%
viability, T/C [23]: 68.3%
viability, T/C [24]: 59.5%
viability, T/C [25]: 54.7%
viability, T/C [26]: 43.4%
viability, T/C [27]: 53.8%
viability, T/C [28]: 42.9%
viability, T/C [29]: 38.5%
viability, T/C [30]: 25.3%
viability, T/C [31]: 69.9%
viability, T/C [32]: 71.6%
viability, T/C [33]: 79.8%
viability, T/C [34]: 76.1%
viability, T/C [35]: 72.4%
viability, T/C [36]: 63.2%

IC50 (second compound 0.0316 µM): 2420 nM
IC50 (second compound 0.1 µM): 2030 nM
IC50 (second compound 0.316 µM): 1780 nM
IC50 (second compound 1 µM): 1340 nM
IC50 (second compound 3.16 µM): 1050 nM
IC50 (second compound 10 µM): 889 nM
Compound: COc1cccc2c1C(=O)c1c(O)c3c(c(O)c1C2=O)CC(O)(C(=O)CO)CC3OC1CC(N)C(O)C(C)O1 (stereo unspecified) + Cc1cnc(CNC(=O)c2c(=O)c3ccc(N4CCCN(C)CC4)nc3n3c2sc2ccccc23)cn1
viability, T/C [1]: 118%
viability, T/C [2]: 99.5%
viability, T/C [3]: 97.7%
viability, T/C [4]: 79.2%
viability, T/C [5]: 39.8%
viability, T/C [6]: 3.19%
viability, T/C [7]: 106%
viability, T/C [8]: 109%
viability, T/C [9]: 99%
viability, T/C [10]: 83.1%
viability, T/C [11]: 29.6%
viability, T/C [12]: 2.62%
viability, T/C [13]: 96.9%
viability, T/C [14]: 93%
viability, T/C [15]: 89.2%
viability, T/C [16]: 62.6%
viability, T/C [17]: 35.8%
viability, T/C [18]: 4.79%
viability, T/C [19]: 89.7%
viability, T/C [20]: 88.8%
viability, T/C [21]: 85.2%
viability, T/C [22]: 57.2%
viability, T/C [23]: 24.1%
viability, T/C [24]: 2.16%
viability, T/C [25]: 88.1%
viability, T/C [26]: 84.8%
viability, T/C [27]: 73.2%
viability, T/C [28]: 53.6%
viability, T/C [29]: 17.4%
viability, T/C [30]: 0.96%
viability, T/C [31]: 72.2%
viability, T/C [32]: 80.4%
viability, T/C [33]: 74%
viability, T/C [34]: 46.4%
viability, T/C [35]: 12.4%
viability, T/C [36]: 0.74%

Compound: CCc1c2c(nc3ccc(O)cc13)-c1cc3c(c(=O)n1C2)COC(=O)[C@]3(O)CC + Cc1[nH]c2ccc(F)cc2c1-c1nc2c3cccnc3c3ncccc3c2[nH]1
IC50 (second compound 0.0316 µM): 114 nM
IC50 (second compound 0.1 µM): 110 nM
IC50 (second compound 0.316 µM): 121 nM
IC50 (second compound 1 µM): 125 nM
IC50 (second compound 3.16 µM): < 0.999 nM
IC50 (second compound 10 µM): 62.4 nM
viability, T/C (second compound 0.0316 µM, first compound 0.000999 µM): 96.4%
viability, T/C (second compound 0.0316 µM, first compound 0.00316 µM): 83.6%
viability, T/C (second compound 0.0316 µM, first compound 0.00999 µM): 83.2%
viability, T/C [1]: 73.9%
viability, T/C (second compound 0.0316 µM, first compound 0.0999 µM): 55.5%
viability, T/C [3]: 18.4%
viability, T/C (second compound 0.1 µM, first compound 0.000999 µM): 104%
viability, T/C (second compound 0.1 µM, first compound 0.00316 µM): 90.5%
viability, T/C (second compound 0.1 µM, first compound 0.00999 µM): 76.8%
viability, T/C [7]: 70.4%
viability, T/C (second compound 0.1 µM, first compound 0.0999 µM): 60.9%
viability, T/C [9]: 21.3%
viability, T/C (second compound 0.316 µM, first compound 0.000999 µM): 85.8%
viability, T/C (second compound 0.316 µM, first compound 0.00316 µM): 86%
viability, T/C (second compound 0.316 µM, first compound 0.00999 µM): 73.3%
viability, T/C [13]: 69.5%
viability, T/C (second compound 0.316 µM, first compound 0.0999 µM): 59.8%
viability, T/C [15]: 21.5%
viability, T/C (second compound 1 µM, first compound 0.000999 µM): 78%
viability, T/C (second compound 1 µM, first compound 0.00316 µM): 61.1%
viability, T/C (second compound 1 µM, first compound 0.00999 µM): 57.6%
viability, T/C [19]: 60.6%
viability, T/C (second compound 1 µM, first compound 0.0999 µM): 58.7%
viability, T/C [21]: 18.9%
viability, T/C (second compound 3.16 µM, first compound 0.000999 µM): 43%
viability, T/C (second compound 3.16 µM, first compound 0.00316 µM): 28.7%
viability, T/C (second compound 3.16 µM, first compound 0.00999 µM): 28.4%
viability, T/C [25]: 21.3%
viability, T/C (second compound 3.16 µM, first compound 0.0999 µM): 14.1%
viability, T/C [27]: 7.27%
viability, T/C (second compound 10 µM, first compound 0.000999 µM): 63%
viability, T/C (second compound 10 µM, first compound 0.00316 µM): 58.8%
viability, T/C (second compound 10 µM, first compound 0.00999 µM): 46.8%
viability, T/C [31]: 60.3%
viability, T/C (second compound 10 µM, first compound 0.0999 µM): 45.5%
viability, T/C [33]: 21.4%
